Data set [1] relates to Penicillium sp. (laboratory isolate). Nature of the data set: SABHI agar plate growth inhibition screen. In kind it is cell-based. Conditions: for Activity against Penicillium sp. (Example 1): 25 µg/ml SABHI agar; for Growth at 25 µg/ml compared to control at 24 hrs incubation / Growth at 25µg/ml compared to control at 48 hours: Penicillium Sp., 30°C, growth grade. The method, then:
(§1) The following fungi were inoculated onto potato dextrose agar (PDA) from stock cultures and incubated aerobically at 30°C: Aspergillus [NT] 1022, Penicillium sp. (laboratory isolate), Candida albicans, ATCC 14053, and Rhizopus sp. […] Candida albicans was suspended in saline and adjusted to 0.5 MacFarland in a similar manner. These suspensions were diluted 1:100 in sterile 0.9% saline. SABHI Agar (Difco) pH 7.0 was prepared in 100ml amounts and sterilized at 121°C for 15 min. […] The plates were then incubated aerobically for 24 hour and for 48 hours at 30°C.

Data set [2] concerns Aspergillus fumigatus ATCC 1022. Briefly: SABHI agar plate growth inhibition screen. The data set is classed as cell-based. Conditions: for Activity against Aspergillus fumigatus (Example 1): 25 µg/ml SABHI agar; for Growth at 25 µg/ml compared to control at 24 hrs incubation / Growth at 25µg/ml compared to control at 48 hours: Aspergillus Fumigatus, 30°C, growth grade. The method, then:
as §1

The next data set concerns Rhizopus sp. Nature of the data set: SABHI agar plate growth inhibition screen. In kind it is cell-based. Conditions: for Growth at 25 µg/ml compared to control at 24 hrs incubation / Growth at 25µg/ml compared to control at 48 hours: Rhizopus sp., 30°C, growth grade. The procedure:
as §1

The subject of data set [3] is Candida albicans, ATCC 14053. Briefly: SABHI agar plate growth inhibition screen. The data set is classed as cell-based. The settings on record: for Activity against Candida albicans (Example 1): 25 µg/ml SABHI agar; for Growth at 25 µg/ml compared to control at 24 hrs incubation / Growth at 25µg/ml compared to control at 48 hours: Candida Albicans, 30°C, growth grade. The procedure: as §1

Data set [4] can be described thus: Testing in cancer patients (side effects). In kind it is in vivo.
The next data set in a line: Toxicity in vivo. Conditions: 2.0 µg/ml concentration.
The nature of data set [5]: Blood levels after oral gavage. Also noted: species or system adult rats. The settings on record: rat, in vivo. From the text:
In the treatment of certain localized conditions, the degree of hydrophilicity of the CMT can be of lesser importance. […].

Data set [6] can be described thus: Solubility in aqueous systems. The data set is classed as physicochemical.

Each structure is given as a SMILES string.

From patent publication EP1296703B1, “NON-ANTIBACTERIAL TETRACYCLINE AS ANTI-FUNGAL AGENTS” (Liu, Yu, priority 2000, dated 2001) come the findings set out here.

As to `O=C(NCN1CCNCC1)C1=C(O)C[C@@H]2C[C@@H]3Cc4cccc(O)c4C(=O)C3=C(O)[C@]2(O)C1=O` [CMT-315], in data set [1], the “Activity against Penicillium sp. (Example 1)” value is on record as “activity against all the fungi tested”, the “Growth at 25 µg/ml compared to control at 24 hrs incubation” value (“Growth at 25 µg/ml compared to control” for short) is recorded as 0 (complete inhibition of growth.) and the “Growth at 25µg/ml compared to control at 48 hours” value is listed as 0 (complete inhibition of growth.). In data set [2], the “Activity against Aspergillus fumigatus (Example 1)” value is “activity against all the fungi tested”, the “Growth at 25 µg/ml compared to control” value is 0 (complete inhibition of growth.) and the “Growth at 25µg/ml compared to control at 48 hours” value was 0 (complete inhibition of growth.). Also, the “Activity against Rhizopus sp. (Example 1)” value in the data set with Rhizopus sp. (25 µg/ml SABHI agar) is given as “activity against all the fungi tested”. Besides, in the data set with Rhizopus sp., the “Growth at 25 µg/ml compared to control” value was 1 (75% reduction in growth in colonies compared to control.) and the “Growth at 25µg/ml compared to control at 48 hours” value is on record as 1 (75% reduction in growth in colonies compared to control.). In data set [3], the “Activity against Candida albicans (Example 1)” value is “activity against all the fungi tested”, the “Growth at 25 µg/ml compared to control” value was 0 (complete inhibition of growth.) and the “Growth at 25µg/ml compared to control at 48 hours” value was 0 (complete inhibition of growth.).
`NC(=O)C1=C(O)C[C@@H]2C[C@@H]3Cc4ccc(N)c(O)c4C(=O)C3=C(O)[C@]2(O)C1=O` [CMT-308]: in data set [1], the “Activity against Penicillium sp. (Example 1)” value is given as “demonstrated activity”. The “Growth at 25 µg/ml compared to control” value in data set [1] is listed as 0 (complete inhibition of growth.); in data set [2], 0 (complete inhibition of growth.); with Rhizopus sp., 4 (Level of growth in the absence of anti-fungal agent (control).); in data set [3], 4 (Level of growth in the absence of anti-fungal agent (control).). Moreover, the “Growth at 25µg/ml compared to control at 48 hours” value is reported as 0 (complete inhibition of growth.) in data set [1], 1 (75% reduction in growth in colonies compared to control.) in data set [2], 4 (Level of growth in the absence of anti-fungal agent (control).) in the data set with Rhizopus sp. and 4 (Level of growth in the absence of anti-fungal agent (control).) in data set [3]. The “Activity against Aspergillus fumigatus (Example 1)” value in data set [2] is “demonstrated activity”.
As to `CC1(O)c2c(Cl)ccc(O)c2C(=O)C2=C(O)C3(O)C(=O)C(C(N)=O)=C(O)CC3CC21` (stereo not drawn) [CMT-4, 7-chloro-4-de(dimethylamino)tetracycline], in data set [1], the “Activity against Penicillium sp. (Example 1)” value is listed as “demonstrated activity”, the “Growth at 25 µg/ml compared to control” value is 3 (25% reduction in growth of colonies compared to control.) and the “Growth at 25µg/ml compared to control at 48 hours” value was 0 (complete inhibition of growth.). Also, in data set [2], the “Activity against Aspergillus fumigatus (Example 1)” value was “demonstrated activity”, the “Growth at 25 µg/ml compared to control” value is recorded as 0 (complete inhibition of growth.) and the “Growth at 25µg/ml compared to control at 48 hours” value is listed as 1 (75% reduction in growth in colonies compared to control.). For the same molecule, in the data set on Rhizopus sp., the “Growth at 25 µg/ml compared to control” value was 4 (Level of growth in the absence of anti-fungal agent (control).) and the “Growth at 25µg/ml compared to control at 48 hours” value is on record as 4 (Level of growth in the absence of anti-fungal agent (control).). In addition, in data set [3], the “Growth at 25 µg/ml compared to control” value was 1 (75% reduction in growth in colonies compared to control.) and the “Growth at 25µg/ml compared to control at 48 hours” value was 4 (Level of growth in the absence of anti-fungal agent (control).).
Regarding `CC1(O)c2cccc(O)c2C(=O)C2=C(O)C3C(=O)C(C(N)=O)=C(O)CC3CC21` (stereo not drawn) [CMT-7, 4-de(dimethylamino)-12α-deoxytetracycline], the “Growth at 25 µg/ml compared to control” value in data set [1] is recorded as 3 (25% reduction in growth of colonies compared to control.); in data set [2], 0 (complete inhibition of growth.); in the data set on Rhizopus sp. it was 4 (Level of growth in the absence of anti-fungal agent (control).); in data set [3], 0 (complete inhibition of growth.). Besides, the “Growth at 25µg/ml compared to control at 48 hours” value is 4 (Level of growth in the absence of anti-fungal agent (control).) in data set [1], 4 (Level of growth in the absence of anti-fungal agent (control).) in data set [2], 3 (25% reduction in growth of colonies compared to control.) in the data set on Rhizopus sp. and 0 (complete inhibition of growth.) in data set [3]. In addition, in data set [3], the “Activity against Candida albicans (Example 1)” value is reported as “strong activity”.
On to `NC(=O)C1=C(O)C[C@@H]2C[C@@H]3Cc4cccc(O)c4C(=O)C3=C(O)[C@]2(O)C1=O` [CMT-3, 6-demethyl-6-deoxy-4-de(dimethylamino)tetracycline], for which the Side effects entry in data set [4] is reported as “without evidence of side effects, except at unusually high doses”. The Toxicity in vivo entry in “Toxicity in vivo” is on record as “very little toxicity”.
On to `CN(C)C1C(=O)C(C#N)=C(O)C2(O)C(=O)C3=C(O)c4c(O)cccc4C(C)(O)C3CC12` (stereo not drawn) [CMT-2, tetracyclinonitrile], for which the Blood levels entry in data set [5] is recorded as “no detectable blood levels”. Besides, the “Solubility in aqueous systems” value in data set [6] is recorded as “low solubility in aqueous systems”.
